How the values were obtained:
[1] = tested on: primary human fibroblasts derived from IPF patients (LL29 cells) treated with TGF-β1; experiment: Inhibition of the fibrotic process: αSMA staining in TGF-β1 treated primary human fibroblasts from IPF patients (LL29 cells); format: cell-based; conditions: Fibroblast, 96 h, TGF-β1 20 ng/mL, 4 days; for EC50: % αSMA positive cells; for inhibition at 10 µM: given where EC50 >10 μM, read-out: percent inhibition at 10 μM
In short: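 EC50 values come from non-linear fits of the αSMA-positive percentage among SYTOX-excluded live cells, normalized to TGF-β1 plus DMSO controls, or appear as % inhibition at 10 μM when above 10 μM. Fibrosis was induced in IPF-derived LL29 fibroblasts by 20 ng/mL TGF-β1 over 4 days, with 1:2 compound dilutions from 10 μM.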

IL-6 (THP-1 cells) = experiment: IL-6 inhibition in LPS-stimulated THP-1 human monocyte cells (HTRF); format: cell-based; conditions: LPS 500 ng/mL; for EC50: 22 hours, IL6 HTRF; for inhibition at 10 µM: given where EC50 >10 μM, read-out: percent inhibition at 10 μM
In short: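 Readout is the 665/620 nm HTRF ratio for secreted IL-6, normalized to DMSO wells, with EC50 from a variable-slope four-parameter fit, or % inhibition at 10 μM when above 10 μM. Cells (1% FBS, 24 h beforehand) got compound for 2 h, then LPS 500 ng/mL for 22 h at 37° C; top dose 10 μM, 0.1% DMSO.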

SMILES	EC50 [1]	EC50 (IL-6 (THP-1 cells))	inhibition at 10 µM [1]	inhibition at 10 µM (IL-6 (THP-1 cells))
CN(C)CCNc1cc(F)cc(-c2cccc3[nH]c(-c4n[nH]c5ccc(-c6ccccn6)nc45)cc23)c1 [Compound 476, N^1-(3-Fluoro-5-(2-(5-(pyridin-2-yl)-1H-pyrazolo[4,3-b]pyridin-3-yl)-1H-indol-4-yl)phenyl)-N^2,N^2-dimethylethane-1,2-diamine]	2120 nM	278 nM		
Cc1ccncc1-c1ccc2[nH]nc(-c3cc4c(-c5cc(F)cc(CNS(C)(=O)=O)c5)cccc4[nH]3)c2n1 [Compound 481, N-(3-Fluoro-5-(2-(5-(4-methylpyridin-3-yl)-1H-pyrazolo[4,3-b]pyridin-3-yl)-1H-indol-4-yl)benzyl)methanesulfonamide]	78 nM	101 nM		
Nc1cncc(-c2ccc3[nH]nc(-c4cc5ncccc5[nH]4)c3n2)c1 [Compound 507, 5-(3-(1H-Pyrrolo[3,2-b]pyridin-2-yl)-1H-pyrazolo[4,3-b]pyridin-5-yl) pyridin-3-amine]	> 10000 nM	8 nM	24.5%	
Fc1cccc(-c2cccc3[nH]c(-c4n[nH]c5ccc(-c6cncc(OCc7ccccc7)c6)nc45)cc23)c1 [Compound 546, 5-(5-(Benzyloxy)pyridin-3-yl)-3-(4-(3-fluorophenyl)-1H-indol-2-yl)-1H-pyrazolo[4,3-b]pyridine]	1440 nM	2910 nM		
c1cc(-c2ccncc2)c2cc(-c3n[nH]c4ccc(-c5cncc(OCCN6CCCC6)c5)nc34)[nH]c2c1 [Compound 606, 3-(4-(Pyridin-4-yl)-1H-indol-2-yl)-5-(5-(2-(pyrrolidin-1-yl)ethoxy)pyridin-3-yl)-1H-pyrazolo[4,3-b]pyridine]	1280 nM	27 nM		
O=C(CC1CCNCC1)Nc1cncc(-c2ccc3[nH]nc(-c4cc5c(-c6ccccn6)cccc5[nH]4)c3n2)c1 [Compound 621, 2-(Piperidin-4-yl)-N-(5-(3-(4-(pyridin-2-yl)-1H-indol-2-yl)-1H-pyrazolo[4,3-b]pyridin-5-yl)pyridin-3-yl)acetamide]	2120 nM	52 nM		
c1cc(N2CCCCC2)c2cc(-c3n[nH]c4ccc(-c5cncc(OC6CCNCC6)c5)nc34)[nH]c2c1 [Compound 636, 3-(4-(Piperidin-1-yl)-1H-indol-2-yl)-5-(5-(piperidin-4-yloxy)pyridin-3-yl)-1H-pyrazolo[4,3-b]pyridine]	3900 nM	1980 nM		
c1cc(-c2ccoc2)c2cc(-c3n[nH]c4ccc(-c5cn[nH]c5)nc34)[nH]c2c1 [Compound 711, 3-(4-(Furan-3-yl)-1H-indol-2-yl)-5-(1H-pyrazol-4-yl)-1H-pyrazolo[4,3-b] pyridine]	8810 nM	72 nM		
c1cc(-c2ccoc2)c2cc(-c3n[nH]c4ccc(-c5cncc(OC6CCCCC6)c5)nc34)[nH]c2c1 [Compound 715, 5-(5-(Cyclohexyloxy)pyridin-3-yl)-3-(4-(furan-3-yl)-1H-indol-2-yl)-1H-pyrazolo[4,3-b]pyridine]	3940 nM	> 10000 nM		36.2%
Oc1cncc(-c2ccc3[nH]nc(-c4cc5c(-c6cccs6)cccc5[nH]4)c3n2)c1 [Compound 737, 5-(3-(4-(Thiophen-2-yl)-1H-indol-2-yl)-1H-pyrazolo[4,3-b]pyridin-5-yl) pyridin-3-ol]	2030 nM	347 nM		
c1cnc2cc(-c3n[nH]c4ccc(-c5cn[nH]c5)nc34)[nH]c2c1 [Compound 1021, 5-(1H-Pyrazol-4-yl)-3-(1H-pyrrolo[3,2-b]pyridin-2-yl)-1H-pyrazolo[4,3-b] pyridine]	1370 nM	> 10000 nM		0%
Oc1cncc(-c2ccc3[nH]nc(-c4cc5ncccc5[nH]4)c3n2)c1 [Compound 1031, 5-(3-(1H-Pyrrolo[3,2-b]pyridin-2-yl)-1H-pyrazolo[4,3-b]pyridin-5-yl) pyridin-3-ol]	> 10000 nM	91 nM	18.4%	
